Key:
Candida albicans = experiment: Antimicrobial activity against Candida albicans MTCC 227 after 2 days by serial dilution method; type: functional
Escherichia coli = experiment: Antimicrobial activity against Escherichia coli MTCC 739 after 24 hr by serial dilution method; type: functional
[1] = Octanol-water partition coefficient, log P of the compound; type: physicochemical
Staphylococcus aureus = experiment: Antimicrobial activity against Staphylococcus aureus MTCC 1430 after 24 hr by serial dilution method; type: functional
Aspergillus niger = experiment: Antimicrobial activity against Aspergillus niger MTCC 2425 after 7 days by serial dilution method; type: functional
Bacillus subtilis = experiment: Antimicrobial activity against Bacillus subtilis MTCC 2423 after 24 hr by serial dilution method; type: functional

Structure (SMILES): COc1ccccc1C(=O)O[C@@H]1C[C@H](C)CC[C@H]1C(C)C
- -logMIC (Candida albicans): 1.97
- -logMIC (Escherichia coli): 1.97
- logP [1]: 4.57
- -logMIC (Staphylococcus aureus): 2.06
- -logMIC (Aspergillus niger): 2.07
- -logMIC (Bacillus subtilis): 1.98

Structure (SMILES): CC(Cl)C(=O)O[C@@H]1C[C@H](C)CC[C@H]1C(C)C (stereo partly specified)
- -logMIC (Candida albicans): 1.9
- -logMIC (Escherichia coli): 1.9
- logP [1]: 4.04
- -logMIC (Staphylococcus aureus): 1.6
- -logMIC (Aspergillus niger): 1.9
- -logMIC (Bacillus subtilis): 1.9

Structure (SMILES): CC(C)[C@@H]1CC[C@@H](C)C[C@H]1OC(=O)CCl
- -logMIC (Candida albicans): 1.87
- -logMIC (Escherichia coli): 1.79
- logP [1]: 3.5
- -logMIC (Staphylococcus aureus): 2
- -logMIC (Aspergillus niger): 2.17
- -logMIC (Bacillus subtilis): 1.86

Structure (SMILES): CCC(=O)O[C@@H]1C[C@H](C)CC[C@H]1C(C)C
- -logMIC (Candida albicans): 1.83
- -logMIC (Escherichia coli): 1.75
- logP [1]: 3.54
- -logMIC (Staphylococcus aureus): 1.75
- -logMIC (Aspergillus niger): 2.13
- -logMIC (Bacillus subtilis): 1.88

Structure (SMILES): CC(=O)O[C@@H]1C[C@H](C)CC[C@H]1C(C)C
- -logMIC (Candida albicans): 1.8
- -logMIC (Escherichia coli): 1.5
- logP [1]: 2.91
- -logMIC (Staphylococcus aureus): 1.5
- -logMIC (Aspergillus niger): 1.98
- -logMIC (Bacillus subtilis): 1.8

Structure (SMILES): CC(C)[C@@H]1CC[C@@H](C)C[C@H]1OC(=O)/C=C/c1ccc([N+](=O)[O-])cc1
- -logMIC (Candida albicans): 2.33
- -logMIC (Escherichia coli): 2.33
- logP [1]: 5.18
- -logMIC (Staphylococcus aureus): 2.03
- -logMIC (Aspergillus niger): 2.18
- -logMIC (Bacillus subtilis): 2.33

Structure (SMILES): CC(C)[C@@H]1CC[C@@H](C)C[C@H]1OC(=O)/C=C/c1cccc([N+](=O)[O-])c1
- -logMIC (Candida albicans): 2.33
- -logMIC (Escherichia coli): 2.14
- logP [1]: 5.18
- -logMIC (Staphylococcus aureus): 2.33
- -logMIC (Aspergillus niger): 2.33
- -logMIC (Bacillus subtilis): 2.03

Structure (SMILES): CC(C)[C@@H]1CC[C@@H](C)C[C@H]1OC(=O)/C=C/c1ccccc1[N+](=O)[O-]
- -logMIC (Candida albicans): 2.33
- -logMIC (Escherichia coli): 2.33
- logP [1]: 5.18
- -logMIC (Staphylococcus aureus): 2.33
- -logMIC (Aspergillus niger): 2.33
- -logMIC (Bacillus subtilis): 2.03

Structure (SMILES): CC(C)[C@@H]1CC[C@@H](C)C[C@H]1OC(=O)/C=C/c1ccccc1
- -logMIC (Candida albicans): 1.96
- -logMIC (Escherichia coli): 1.96
- logP [1]: 5.23
- -logMIC (Staphylococcus aureus): 1.96
- -logMIC (Aspergillus niger): 2.01
- -logMIC (Bacillus subtilis): 2.26

Structure (SMILES): Cc1cccc(C(=O)O[C@@H]2C[C@H](C)CC[C@H]2C(C)C)c1
- -logMIC (Candida albicans): 1.94
- -logMIC (Escherichia coli): 1.93
- logP [1]: 5.29
- -logMIC (Staphylococcus aureus): 2.05
- -logMIC (Aspergillus niger): 2.03
- -logMIC (Bacillus subtilis): 2.02

Structure (SMILES): Cc1ccc(C(=O)O[C@@H]2C[C@H](C)CC[C@H]2C(C)C)cc1
- -logMIC (Candida albicans): 1.94
- -logMIC (Escherichia coli): 1.9
- logP [1]: 5.29
- -logMIC (Staphylococcus aureus): 1.85
- -logMIC (Aspergillus niger): 2.04
- -logMIC (Bacillus subtilis): 2.1

Structure (SMILES): Cc1ccccc1C(=O)O[C@@H]1C[C@H](C)CC[C@H]1C(C)C
- -logMIC (Candida albicans): 1.64
- -logMIC (Escherichia coli): 2.01
- logP [1]: 5.29
- -logMIC (Staphylococcus aureus): 1.94
- -logMIC (Aspergillus niger): 1.94
- -logMIC (Bacillus subtilis): 1.94

Structure (SMILES): COc1ccc(C(=O)O[C@@H]2C[C@H](C)CC[C@H]2C(C)C)cc1
- -logMIC (Candida albicans): 1.67
- -logMIC (Escherichia coli): 1.98
- logP [1]: 4.57
- -logMIC (Staphylococcus aureus): 2.01
- -logMIC (Aspergillus niger): 2.04
- -logMIC (Bacillus subtilis): 2.01

Structure (SMILES): COc1cccc(C(=O)O[C@@H]2C[C@H](C)CC[C@H]2C(C)C)c1
- -logMIC (Candida albicans): 1.97
- -logMIC (Escherichia coli): 1.97
- logP [1]: 4.57
- -logMIC (Staphylococcus aureus): 1.97
- -logMIC (Aspergillus niger): 2.11
- -logMIC (Bacillus subtilis): 1.99

Structure (SMILES): CC(C)[C@@H]1CC[C@@H](C)C[C@H]1OC(=O)c1ccc([N+](=O)[O-])cc1[N+](=O)[O-]
- -logMIC (Candida albicans): 2.05
- -logMIC (Escherichia coli): 2.35
- logP [1]: 4.73
- -logMIC (Staphylococcus aureus): 2.35
- -logMIC (Aspergillus niger): 2.05
- -logMIC (Bacillus subtilis): 2.05

Structure (SMILES): CC(C)[C@@H]1CC[C@@H](C)C[C@H]1OC(=O)c1ccc([N+](=O)[O-])cc1
- -logMIC (Candida albicans): 2.29
- -logMIC (Escherichia coli): 1.99
- logP [1]: 4.78
- -logMIC (Staphylococcus aureus): 2.29
- -logMIC (Aspergillus niger): 2.18
- -logMIC (Bacillus subtilis): 2.02

Structure (SMILES): CC(C)[C@@H]1CC[C@@H](C)C[C@H]1OC(=O)c1cccc([N+](=O)[O-])c1
- -logMIC (Candida albicans): 2.33
- -logMIC (Escherichia coli): 2.29
- logP [1]: 4.78
- -logMIC (Staphylococcus aureus): 2.29
- -logMIC (Aspergillus niger): 2.29
- -logMIC (Bacillus subtilis): 1.99

Structure (SMILES): CC(C)[C@@H]1CC[C@@H](C)C[C@H]1OC(=O)c1ccc(Cl)cc1Cl
- -logMIC (Candida albicans): 1.72
- -logMIC (Escherichia coli): 2.02
- logP [1]: 5.86
- -logMIC (Staphylococcus aureus): 2.02
- -logMIC (Aspergillus niger): 1.95
- -logMIC (Bacillus subtilis): 1.96

Structure (SMILES): CC(C)[C@@H]1CC[C@@H](C)C[C@H]1OC(=O)c1ccccc1[N+](=O)[O-]
- -logMIC (Candida albicans): 2.29
- -logMIC (Escherichia coli): 2.29
- logP [1]: 4.78
- -logMIC (Staphylococcus aureus): 1.99
- -logMIC (Aspergillus niger): 2.17
- -logMIC (Bacillus subtilis): 2.03

Structure (SMILES): CC(C)[C@@H]1CC[C@@H](C)C[C@H]1OC(=O)c1ccc(Cl)cc1
- -logMIC (Candida albicans): 1.67
- -logMIC (Escherichia coli): 1.67
- logP [1]: 5.34
- -logMIC (Staphylococcus aureus): 1.88
- -logMIC (Aspergillus niger): 2.05
- -logMIC (Bacillus subtilis): 1.97

Structure (SMILES): CC(C)[C@@H]1CC[C@@H](C)C[C@H]1OC(=O)c1cccc(Cl)c1
- -logMIC (Candida albicans): 1.97
- -logMIC (Escherichia coli): 1.88
- logP [1]: 5.34
- -logMIC (Staphylococcus aureus): 1.97
- -logMIC (Aspergillus niger): 1.97
- -logMIC (Bacillus subtilis): 1.97

Structure (SMILES): CC(C)[C@@H]1CC[C@@H](C)C[C@H]1OC(=O)c1ccc(Br)cc1
- -logMIC (Candida albicans): 1.85
- -logMIC (Escherichia coli): 2.02
- logP [1]: 5.61
- -logMIC (Staphylococcus aureus): 1.98
- -logMIC (Aspergillus niger): 2.04
- -logMIC (Bacillus subtilis): 2.04

Structure (SMILES): CC(C)[C@@H]1CC[C@@H](C)C[C@H]1OC(=O)c1ccccc1Cl
- -logMIC (Candida albicans): 1.97
- -logMIC (Escherichia coli): 2.1
- logP [1]: 5.34
- -logMIC (Staphylococcus aureus): 1.97
- -logMIC (Aspergillus niger): 2.1
- -logMIC (Bacillus subtilis): 1.91

Structure (SMILES): CC(C)[C@@H]1CC[C@@H](C)C[C@H]1OC(=O)c1cccc(Br)c1
- -logMIC (Candida albicans): 2.04
- -logMIC (Escherichia coli): 1.88
- logP [1]: 5.61
- -logMIC (Staphylococcus aureus): 1.96
- -logMIC (Aspergillus niger): 2.04
- -logMIC (Bacillus subtilis): 1.96

Structure (SMILES): CC(C)[C@@H]1CC[C@@H](C)C[C@H]1OC(=O)c1ccccc1Br
- -logMIC (Candida albicans): 2.04
- -logMIC (Escherichia coli): 1.98
- logP [1]: 5.61
- -logMIC (Staphylococcus aureus): 2.04
- -logMIC (Aspergillus niger): 2.04
- -logMIC (Bacillus subtilis): 2.04

Structure (SMILES): OC(Cn1cncn1)(Cn1cncn1)c1ccc(F)cc1F [FLUCONAZOLE]
- -logMIC (Candida albicans): 2.64
- -logMIC (Aspergillus niger): 2.64

Structure (SMILES): CC(C)[C@@H]1CC[C@@H](C)C[C@H]1OC(=O)c1ccccc1 [MENTHYL BENZOATE]
- -logMIC (Candida albicans): 1.92
- -logMIC (Escherichia coli): 2.01
- logP [1]: 4.82
- -logMIC (Staphylococcus aureus): 1.92
- -logMIC (Aspergillus niger): 1.92
- -logMIC (Bacillus subtilis): 2.01

Structure (SMILES): CCn1cc(C(=O)O)c(=O)c2cc(F)c(N3CCNCC3)cc21 [NORFLOXACIN]
- -logMIC (Escherichia coli): 2.61
- -logMIC (Staphylococcus aureus): 2.61
- -logMIC (Bacillus subtilis): 2.61
